# Measurements: paper PMC10916382, “Repurposing screen identifies novel candidates for broad-spectrum coronavirus antivirals and druggable host targets” (Antimicrobial Agents and Chemotherapy, 2024)
# Structures can show the parent of a compound that is named as a salt. Where two headings read alike, the source gives them in different places.
# How the values were obtained:
# SARS-CoV-2 = conditions: Calu-3 cells
# in vitro [1] = conditions: human
# HCoV-229E = assay: microbe, parasite or virus in culture; format: cell-based, Homo sapiens sapiens; conditions: Human coronavirus 229E
# in vitro [2] = assay: in vitro
# Huh-7.5/F-Luc cells = conditions: maximum tested dose 5 µM
# [3] = Huh7.5, read-out: IC50 (µM), HCoV 229E
# [4] = Anti-SARS-CoV-2 screening on Calu-3 cells: viability [% of control], Calu-3 cells
Compound,Anti-SARS-CoV-2 screening on Calu-3 cells: intracellular SARS-CoV-2 infection measured via immunofluorescence imaging [% of control] (SARS-CoV-2),viability (in vitro [2]; [4]) [%],IC50 (HCoV-229E; Huh7.5) [µM],"CC50 (µM) (Huh-7.5/F-Luc cells; Huh-7.5 cells, dose series)",also measured
CC(C(O)c1ccccc1)N(C)CC=C1c2ccccc2CCc2ccccc21 (stereo not shown) [RFM-010-015-2],107.49 % of control,107,,,viability at 5 µM (in vitro [1]): 122%; IC50 (HCoV-229E; [3]): 1.96 µM; CC50 (µM) (Huh-7.5/F-Luc cells; Huh-7.5/F-Luc cells): greater than maximum tested dose
Cc1cc(OCCN(C)C)c(C(C)C)cc1OC(=O)CC(C)(C)SN=O [RFM-011-454-5],101.17 % of control,88.9,,,viability at 5 µM (in vitro [1]): 118%; IC50 (HCoV-229E; [3]): 2.37 µM; CC50 (µM) (Huh-7.5/F-Luc cells; Huh-7.5/F-Luc cells): greater than maximum tested dose
Oc1ccc(Nc2ccnc3cc(Cl)ccc23)cc1CN1CCCC1 [RFM-010-841-8],102.22 % of control,109,,,viability at 5 µM (in vitro [1]): 165%; IC50 (HCoV-229E; [3]): 1.41 µM; CC50 (µM) (Huh-7.5/F-Luc cells; Huh-7.5/F-Luc cells): greater than maximum tested dose
CC(C)Oc1ccc(-c2nc(-c3cccc4c3CC[C@@H]4NCCO)no2)cc1C#N [CBR-001-211-015-5],,,,,viability at 5 µM (in vitro [1]): 129%; IC50 (HCoV-229E; [3]): 1.17 µM; CC50 (µM) (Huh-7.5/F-Luc cells; Huh-7.5/F-Luc cells): greater than maximum tested dose
CNCc1ccc(C)c(NC(=O)c2ccc(Nc3nc(-c4ccccc4)c4ccccc4n3)cc2)c1 [XL-139],109.44 % of control,107,0.62,greater than maximum tested dose,
COc1ccc(C(C)C)cc1CNC1C2CCN(CC2)C1C(c1ccccc1)c1ccccc1 (stereo not shown) [RFM-011-108-0],86.21 % of control,,0.85,greater than maximum tested dose,"viability at 48 h, 5 µM (in vitro [2]): 96.4%"
CO[C@@H]1[C@H](O)C[C@@H](O[C@@H]2C[C@H](Oc3cc4cc5c(c(O)c4c(O)c3C)C(=O)[C@@H](O[C@H]3C[C@@H](O[C@H]4C[C@@H](O[C@H]6C[C@](C)(O)[C@@H](OC(C)=O)[C@H](C)O6)[C@H](O)[C@@H](C)O4)[C@H](O)[C@@H](C)O3)[C@H]([C@H](OC)C(=O)[C@@H](O)[C@@H](C)O)C5)O[C@H](C)[C@@H]2OC(C)=O)O[C@@H]1C [CHROMOMYCIN A3],60.39 % of control,61.3,,greater than maximum tested dose,"IC50 (HCoV-229E; Huh7.5, read-out: IC50): 0.16 µM"
CC1=C(c2ccc(O)cc2)[C@H](c2ccc(OCCN3CCCCC3)cc2)Oc2cc(O)ccc21 [ACOLBIFENE],111.23 % of control,,0.99,greater than maximum tested dose,"viability at 48 h, 5 µM (in vitro [2]): 88%"
COc1cccc2c1C(=O)c1c(O)c3c(c(O)c1C2=O)C[C@@](O)(C(=O)CO)C[C@@H]3O[C@H]1C[C@H](N2CCO[C@H](OC)C2)[C@H](O)[C@H](C)O1 [NEMORUBICIN],46.15 % of control,,,greater than maximum tested dose,"IC50 (HCoV-229E; Huh7.5, read-out: IC50): 0.17 µM; viability (in vitro [2]): 16.5%"
CNC1CC(c2ccc(Cl)c(Cl)c2)c2ccccc21 (stereo not shown) [Indatraline],97.64 % of control,88.1,,greater than maximum tested dose,"IC50 (HCoV-229E; Huh7.5, read-out: IC50): 0.83 µM"
CN(C)CCOc1ccc(/C(=C(/CCCl)c2ccccc2)c2ccccc2)cc1 [TOREMIFENE CITRATE],114.97 % of control,,1.02,greater than maximum tested dose,viability (in vitro [2]): 95.3%
C1CCC(C(CC2CCCCN2)C2CCCCC2)CC1 (stereo not shown) [PERHEXILINE],116.50 % of control,,0.67,greater than maximum tested dose,"viability at 48 h, 5 µM (in vitro [2]): 97%"
CC(C)(C)NC[C@H](O)COc1ccccc1C1CCCC1 [penbutolol],102.38 % of control,,1.05,greater than maximum tested dose,"viability at 48 h, 5 µM (in vitro [2]): 101%"
Cc1c(-c2ccc(O)cc2)n(Cc2ccc(OCCN3CCCCCC3)cc2)c2ccc(O)cc12 [RFM-002-868-2],103.07 % of control,,,,"viability at 5 µM (in vitro [1]): 165%; viability at 48 h, 5 µM (in vitro [2]; [4]): 96.9%; CC50 (µM) (Huh-7.5/F-Luc cells; Huh-7.5/F-Luc cells): greater than maximum tested dose"
CC(C)(Cc1ccc2ccccc2c1)NC[C@@H](O)COc1cccc(Cl)c1C#N [SB 262470],110.66 % of control,106,0.96,greater than maximum tested dose,
COc1ccc2c(c1)CCC(c1ccccc1)=C2c1ccc(OCCN2CCCC2)cc1 [nafoxidine],104.91 % of control,,0.37,greater than maximum tested dose,"viability at 48 h, 5 µM (in vitro [2]): 110%"

Compound,Anti-SARS-CoV-2 screening on Calu-3 cells: intracellular SARS-CoV-2 infection measured via immunofluorescence imaging [% of control] (SARS-CoV-2),viability (in vitro [2]; [4]) [%],IC50 (HCoV-229E; Huh7.5) [µM],"CC50 (µM) (Huh-7.5/F-Luc cells; Huh-7.5 cells, dose series)",also measured
Cc1nc2c(N3CCNCC3)cccc2n1S(=O)(=O)c1ccccc1 [PF-5212377],99.72 % of control,104,1.15,greater than maximum tested dose,
CCSc1ccc2c(c1)N(CCCN1CCN(C)CC1)c1ccccc1S2 [Thiethylperazine dimaleate],110.38 % of control,95.3,0.93,greater than maximum tested dose,
COCC(=O)O[C@]1(CCN(C)CCCc2nc3ccccc3[nH]2)CCc2cc(F)ccc2[C@@H]1C(C)C [mibefradil dihydrochloride],108.00 % of control,98.3,1.03,greater than maximum tested dose,
O=C1NCCN1CCN1CCC(c2cn(-c3ccc(F)cc3)c3ccc(Cl)cc23)CC1 [sertindole],107.90 % of control,,0.96,greater than maximum tested dose,"viability at 48 h, 5 µM (in vitro [2]): 106%"
OCCN1CCN(CC/C=C2/c3ccccc3Sc3ccc(Cl)cc32)CC1 [ZUCLOPENTHIXOL],108.85 % of control,,1.13,greater than maximum tested dose,"viability at 48 h, 5 µM (in vitro [2]): 110%"
CCOc1cc2c(c(F)c1OCC)C(=N)N(CC(=O)c1cc(N3CCOCC3)c(OC)c(C(C)(C)C)c1)C2 [atopaxar],107.54 % of control,81.4,0.49,greater than maximum tested dose,
CC/C(=C(\c1ccc(O)cc1)c1ccc(OCCN(C)C)cc1)c1ccccc1 [Afimoxifene],100.60 % of control,93.4,0.63,greater than maximum tested dose,
"CN(C)c1ccc(C(=C2C=CC(=[N+](C)C)C=C2)c2ccc(N(C)C)cc2)cc1 [Gentian violet, reference compound]",6.34 % of control,,0.12,greater than maximum tested dose,"total cell numbers (SARS-CoV-2; 5 µM, DAPI, relative to DMSO): ≥ 75%; reduction of infected cell numbers (SARS-CoV-2; 5 µM, N protein immunofluorescence, relative to DMSO): more than 50%; viability at 48 h, 5 µM (in vitro [2]): 101%"
CC(C)(C)c1cnc(CSc2cnc(NC(=O)C3CCNCC3)s2)o1 [SNS-032],132.10 % of control,39.8,0.21,greater than maximum tested dose,
CCNCc1cc(Nc2ccnc3cc(Cl)ccc23)ccc1O [CBR-001-843-604-9],,,,,viability at 5 µM (in vitro [1]): 131%; IC50 (HCoV-229E; [3]): 1.43 µM; CC50 (µM) (Huh-7.5/F-Luc cells; Huh-7.5/F-Luc cells): greater than maximum tested dose
CNCc1ccc(OC)c([C@]2(N3CCC[C@H]3c3ncco3)C(=O)N(S(=O)(=O)c3ccc(OC)cc3)c3ccc(Cl)cc32)c1 [RFM-011-200-5],106.10 % of control,117,0.7,greater than maximum tested dose,
Cc1ccc(Sc2ccccc2N2CCNCC2)c(C)c1 [Vortioxetine hydrobromide],101.64 % of control,82.8,0.99,greater than maximum tested dose,
CN1CCC(c2cn(C)c3ccc(OS(=O)(=O)c4c(F)cccc4F)cc23)CC1 [LY-483518],109.16 % of control,,1.03,greater than maximum tested dose,"viability at 48 h, 5 µM (in vitro [2]): 111%"
Oc1ccc2c(c1)CC[C@H](c1ccccc1)[C@@H]2c1ccc(OCCN2CCCC2)cc1 [Lasofoxifene],119.41 % of control,92.8,0.75,greater than maximum tested dose,
OCCN1CCN(CCCN2c3ccccc3Sc3ccc(C(F)(F)F)cc32)CC1 [RFM-001-668-2],116.92 % of control,99,,,viability at 5 µM (in vitro [1]): 154%; CC50 (µM) (Huh-7.5/F-Luc cells; Huh-7.5/F-Luc cells): greater than maximum tested dose
